In publication PMC6222886, “Isolation of Tricin as a Xanthine Oxidase Inhibitor from Sweet White Clover (Melilotus albus) and Its Distribution in Selected Gramineae Species” (Molecules : A Journal of Synthetic Chemistry and Natural …, 2018):

Target: T1, xanthine oxidase (XO) (Bos taurus, UniProt P80457)
T1 construct: gene XDH
Assay: xanthine oxidase inhibition assay with Lineweaver-Burk kinetics (IC50 […]; KI […])
Type: biochemical

T1 sequence (P80457 2-1332): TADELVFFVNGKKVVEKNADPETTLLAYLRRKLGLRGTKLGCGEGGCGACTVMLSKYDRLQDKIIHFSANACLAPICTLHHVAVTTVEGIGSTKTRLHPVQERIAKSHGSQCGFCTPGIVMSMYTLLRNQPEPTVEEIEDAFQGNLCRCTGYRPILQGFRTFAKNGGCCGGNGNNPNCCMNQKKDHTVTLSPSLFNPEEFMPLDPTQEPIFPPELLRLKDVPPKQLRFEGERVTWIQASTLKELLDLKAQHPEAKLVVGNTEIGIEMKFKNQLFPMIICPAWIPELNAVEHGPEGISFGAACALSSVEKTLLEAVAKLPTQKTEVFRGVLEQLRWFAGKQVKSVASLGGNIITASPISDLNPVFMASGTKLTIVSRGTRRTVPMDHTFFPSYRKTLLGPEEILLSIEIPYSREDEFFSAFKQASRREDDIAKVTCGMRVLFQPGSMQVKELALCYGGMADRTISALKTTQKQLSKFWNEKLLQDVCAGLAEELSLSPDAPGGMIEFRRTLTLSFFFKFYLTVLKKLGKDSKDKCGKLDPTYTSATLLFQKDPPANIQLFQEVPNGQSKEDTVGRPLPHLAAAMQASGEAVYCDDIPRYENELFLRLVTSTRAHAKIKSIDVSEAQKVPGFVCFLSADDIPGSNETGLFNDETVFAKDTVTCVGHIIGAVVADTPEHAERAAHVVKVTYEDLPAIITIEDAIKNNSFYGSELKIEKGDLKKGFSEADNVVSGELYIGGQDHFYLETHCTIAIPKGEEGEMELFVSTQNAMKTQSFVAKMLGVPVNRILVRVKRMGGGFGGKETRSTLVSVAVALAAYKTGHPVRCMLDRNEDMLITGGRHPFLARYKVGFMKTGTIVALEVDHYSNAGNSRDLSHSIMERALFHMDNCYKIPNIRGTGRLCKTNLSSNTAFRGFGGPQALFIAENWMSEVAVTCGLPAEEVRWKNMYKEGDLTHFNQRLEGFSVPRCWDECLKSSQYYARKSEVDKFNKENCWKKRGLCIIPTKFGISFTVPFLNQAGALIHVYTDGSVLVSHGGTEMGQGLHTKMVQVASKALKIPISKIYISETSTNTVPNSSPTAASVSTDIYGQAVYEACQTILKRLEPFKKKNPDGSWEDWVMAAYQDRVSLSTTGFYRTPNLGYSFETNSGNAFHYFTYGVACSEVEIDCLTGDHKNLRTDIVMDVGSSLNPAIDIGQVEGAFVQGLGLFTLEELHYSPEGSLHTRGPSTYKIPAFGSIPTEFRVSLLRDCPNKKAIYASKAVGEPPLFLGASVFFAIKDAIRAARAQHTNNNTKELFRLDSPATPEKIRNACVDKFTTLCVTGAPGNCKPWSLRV

Q: `COc1cc(-c2cc(=O)c3c(O)cc(O)cc3o2)cc(OC)c1O` [tricin] was tested. Which Ki did it give?
A: 470 nM
